# In ChEMBL document CHEMBL1201862, “PubChem BioAssay data set” (2004):
# Values joined by “and” are separate entries in the source; they are usually repeats but may differ in a detail not shown here. Equal values may be shown once.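 Five concentrations, 48 hours, 96-well plates. At the GI50, growth is halved.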 Active and inactive are the calls of the source. No stated cut-off is given here; in the data, active = GI50 up to about 1.1 µM and inactive = higher.
# Experiments:
# Test in all cases: NCI tumour cell line growth inhibition, 48 h
# MDA-N = system: MDA-N
# Malme-3M = system: Malme-3M
# MDA-MB-435 = system: MDA-MB-435
# MDA-MB-231 = system: MDA-MB-231
# NCI-H23 = system: NCI-H23
# BT-549 = system: BT-549
# 786-0 = system: 786-0
# PC-3 = system: PC-3
# SK-MEL-28 = system: SK-MEL-28
# OVCAR-3 = system: OVCAR-3
# UO-31 = system: UO-31
# TK-10 = system: TK-10
# HT-29 = system: HT-29
# SR = system: SR
# NCI/ADR-RES = system: NCI/ADR-RES
# SF-295 = system: SF-295
# CAKI-1 = system: CAKI-1
# T47D = system: T47D
# OVCAR-4 = system: OVCAR-4
# OVCAR-5 = system: OVCAR-5
# SNB-19 = system: SNB-19
# NCI-H522 = system: NCI-H522
# SNB-75 = system: SNB-75
# SK-MEL-2 = system: SK-MEL-2
# IGROV-1 = system: IGROV-1
# HOP-62 = system: HOP-62
# UACC-257 = system: UACC-257
# SN12C = system: SN12C
# ACHN = system: ACHN
# RXF 393 = system: RXF 393
# SF-268 = system: SF-268
# COLO 205 = system: COLO 205
# HCC 2998 = system: HCC 2998
# MCF7 = system: MCF7
# SF-539 = system: SF-539
# U-251 = system: U-251
# EKVX = system: EKVX
# SW-620 = system: SW-620
# OVCAR-8 = system: OVCAR-8
# A549 = system: A549
# HCT-15 = system: HCT-15
# DU-145 = system: DU-145
# K562 = system: K562
# SK-OV-3 = system: SK-OV-3
# SK-MEL-5 = system: SK-MEL-5
# KM12 = system: KM12
# NCI-H460 = system: NCI-H460
# CCRF-CEM = system: CCRF-CEM
# M14 = system: M14
# MOLT-4 = system: MOLT-4
# HCT-116 = system: HCT-116
# RPMI-8226 = system: RPMI-8226
# LOX IMVI = system: LOX IMVI
# UACC-62 = system: UACC-62
# NCI-H226 = system: NCI-H226
# Hs-578T = system: Hs-578T
# HOP-92 = system: HOP-92
# HL-60 = system: HL-60
# A498 = system: A498
smiles,measurement,setting,value
N#Cc1c(N2CCN(c3ccc([N+](=O)[O-])cc3)CC2)[n+]([O-])c2ccccc2[n+]1[O-],GI50,MDA-N,> 100 µM (inactive)
same,GI50,Malme-3M,> 100 µM (inactive)
same,GI50,MDA-MB-435,> 100 µM (inactive)
same,GI50,MDA-MB-231,> 100 µM (inactive)
same,GI50,NCI-H23,> 100 µM (inactive)
same,GI50,BT-549,> 100 µM (inactive)
same,GI50,786-0,> 100 µM (inactive)
same,GI50,PC-3,> 100 µM (inactive)
same,GI50,SK-MEL-28,> 100 µM (inactive)
same,GI50,OVCAR-3,> 100 µM (inactive)
same,GI50,UO-31,0.0155 µM (active)
same,GI50,TK-10,> 100 µM (inactive)
same,GI50,HT-29,> 100 µM (inactive)
same,GI50,SR,1.28 µM (inactive)
same,GI50,NCI/ADR-RES,79.4 µM (inactive)
same,GI50,SF-295,> 100 µM (inactive)
same,GI50,CAKI-1,> 100 µM (inactive)
same,GI50,T47D,55.6 µM (inactive)
same,GI50,OVCAR-4,> 100 µM (inactive)
same,GI50,OVCAR-5,> 100 µM (inactive)
same,GI50,SNB-19,> 100 µM (inactive)
same,GI50,NCI-H522,3.5 µM (inactive)
same,GI50,SNB-75,> 100 µM (inactive)
same,GI50,SK-MEL-2,> 100 µM (inactive)
same,GI50,IGROV-1,17.4 µM (inactive)
same,GI50,HOP-62,> 100 µM (inactive)
same,GI50,UACC-257,> 100 µM (inactive)
same,GI50,SN12C,> 100 µM (inactive)
same,GI50,ACHN,> 100 µM (inactive)
same,GI50,RXF 393,> 100 µM (inactive)
same,GI50,SF-268,0.346 µM (active)
same,GI50,COLO 205,> 100 µM (inactive)
same,GI50,HCC 2998,> 100 µM (inactive)
same,GI50,MCF7,> 100 µM (inactive)
same,GI50,SF-539,38.3 µM (inactive)
same,GI50,U-251,78.2 µM (inactive)
same,GI50,EKVX,> 100 µM (inactive)
same,GI50,SW-620,> 100 µM (inactive)
same,GI50,OVCAR-8,20.5 µM (inactive)
same,GI50,A549,99.5 µM (inactive)
same,GI50,HCT-15,> 100 µM
same,GI50,DU-145,> 100 µM (inactive)
same,GI50,K562,6.78 µM (inactive)
same,GI50,SK-OV-3,> 100 µM (inactive)
same,GI50,SK-MEL-5,> 100 µM (inactive)
same,GI50,KM12,> 100 µM (inactive)
same,GI50,NCI-H460,> 100 µM (inactive)
same,GI50,CCRF-CEM,4.94 µM (inactive)
same,GI50,M14,> 100 µM (inactive)
same,GI50,MOLT-4,1.93 µM (inactive)
same,GI50,HCT-116,> 100 µM (inactive)
same,GI50,RPMI-8226,6.5 µM (inactive)
same,GI50,LOX IMVI,32.4 µM (inactive)
same,GI50,UACC-62,> 100 µM (inactive)
CCCCCCCCCCCCCCCCOP(=O)(O)OP(=O)(O)OCC1OC(n2ccc(N)nc2=O)C(O)C1O (centres undefined),GI50,MDA-N,> 100 µM (inactive)
same,GI50,MDA-MB-435,> 100 µM (inactive)
same,GI50,MDA-MB-231,> 76.2 µM (inactive)
same,GI50,BT-549,> 93.3 µM (inactive)
same,GI50,PC-3,54.6 µM (inactive)
same,GI50,SK-MEL-28,> 100 µM (inactive)
same,GI50,OVCAR-3,> 100 µM (inactive)
same,GI50,TK-10,> 100 µM (inactive)
same,GI50,HT-29,51.3 µM (inactive)
same,GI50,T47D,> 74 µM (inactive)
same,GI50,OVCAR-4,> 100 µM (inactive)
same,GI50,OVCAR-5,> 100 µM (inactive) and > 61.9 µM (inactive)
same,GI50,SK-MEL-2,> 100 µM (inactive)
same,GI50,IGROV-1,> 100 µM (inactive) and > 89.7 µM (inactive)
same,GI50,NCI-H226,89.3 µM (inactive)
same,GI50,UACC-257,> 100 µM (inactive) and > 96.6 µM (inactive)
same,GI50,RXF 393,58.2 µM (inactive)
same,GI50,SF-268,> 100 µM (inactive)
same,GI50,COLO 205,> 100 µM (inactive)
same,GI50,SF-539,> 91 µM (inactive)
same,GI50,U-251,> 100 µM (inactive) and > 76.7 µM (inactive)
same,GI50,EKVX,> 100 µM (inactive)
same,GI50,SW-620,> 100 µM (inactive) and > 95.7 µM (inactive)
same,GI50,Hs-578T,> 91.6 µM (inactive)
same,GI50,HCT-15,> 100 µM and 98.2 µM
same,GI50,DU-145,> 100 µM (inactive) and 58.2 µM (inactive)
same,GI50,SK-MEL-5,> 100 µM (inactive) and 53 µM (inactive)
same,GI50,KM12,> 100 µM (inactive)
same,GI50,HOP-92,> 100 µM (inactive) and 57.1 µM (inactive)
same,GI50,RPMI-8226,> 100 µM (inactive)
O=[N+]([O-])/C(Cl)=C(\NCCN/C(C(Cl)=C(Cl)Cl)=C(/Cl)[N+](=O)[O-])C(Cl)=C(Cl)Cl,GI50,MDA-N,82.2 µM (inactive)
same,GI50,HL-60,25.6 µM (inactive)
same,GI50,Malme-3M,46.5 µM (inactive)
same,GI50,MDA-MB-435,87.1 µM (inactive)
same,GI50,MDA-MB-231,52.1 µM (inactive)
same,GI50,NCI-H23,28.7 µM (inactive)
same,GI50,BT-549,69 µM (inactive)
same,GI50,786-0,31.6 µM (inactive)
same,GI50,A498,48.1 µM (inactive)
same,GI50,PC-3,43.6 µM (inactive)
same,GI50,SK-MEL-28,57.8 µM (inactive)
same,GI50,OVCAR-3,16.5 µM (inactive)
same,GI50,UO-31,> 100 µM (inactive)
same,GI50,TK-10,71.4 µM (inactive)
same,GI50,SR,17.1 µM (inactive)
same,GI50,NCI/ADR-RES,89.7 µM (inactive)
same,GI50,SF-295,39.7 µM (inactive)
same,GI50,CAKI-1,> 100 µM (inactive)
same,GI50,T47D,51.2 µM (inactive)
same,GI50,OVCAR-5,> 100 µM (inactive)
same,GI50,SNB-19,92.9 µM (inactive)
same,GI50,SNB-75,35.5 µM (inactive)
same,GI50,IGROV-1,62.7 µM (inactive)
same,GI50,NCI-H226,> 100 µM (inactive)
same,GI50,HOP-62,71.8 µM (inactive)
same,GI50,SN12C,70.5 µM (inactive)
same,GI50,ACHN,> 100 µM (inactive)
same,GI50,SF-268,40.8 µM (inactive)
same,GI50,COLO 205,36.4 µM (inactive)
same,GI50,HCC 2998,83.6 µM (inactive)
same,GI50,MCF7,47.6 µM (inactive)
same,GI50,SF-539,> 100 µM (inactive)
same,GI50,U-251,48.8 µM (inactive)
same,GI50,EKVX,> 100 µM (inactive)
same,GI50,SW-620,47.5 µM (inactive)
same,GI50,OVCAR-8,40.3 µM (inactive)
same,GI50,A549,45.2 µM (inactive)
same,GI50,HCT-15,36.6 µM
same,GI50,DU-145,> 100 µM (inactive)
same,GI50,K562,27.8 µM (inactive)
same,GI50,SK-OV-3,69.5 µM (inactive)
same,GI50,KM12,31.8 µM (inactive)
same,GI50,NCI-H460,49.5 µM (inactive)
same,GI50,HOP-92,17.9 µM (inactive)
same,GI50,CCRF-CEM,27 µM (inactive)
same,GI50,M14,61.1 µM (inactive)
same,GI50,MOLT-4,22 µM (inactive)
same,GI50,HCT-116,39.1 µM (inactive)
same,GI50,RPMI-8226,17.7 µM (inactive)
same,GI50,LOX IMVI,18.8 µM (inactive)
same,GI50,UACC-62,31.2 µM (inactive)
CC(C)(C)OC(=O)N/N=C(/N)c1ccccc1,GI50,MDA-N,> 100 µM (inactive)
same,GI50,HL-60,6.55 µM (inactive)
same,GI50,Malme-3M,> 100 µM (inactive)
same,GI50,MDA-MB-435,> 100 µM (inactive)
same,GI50,MDA-MB-231,> 100 µM (inactive)
same,GI50,NCI-H23,> 100 µM (inactive)
same,GI50,BT-549,> 100 µM (inactive)
same,GI50,786-0,> 100 µM (inactive)
same,GI50,PC-3,> 100 µM (inactive)
same,GI50,SK-MEL-28,> 100 µM (inactive)
same,GI50,OVCAR-3,> 100 µM (inactive)
same,GI50,UO-31,> 100 µM (inactive)
same,GI50,TK-10,> 100 µM (inactive)
same,GI50,HT-29,> 100 µM (inactive)
same,GI50,NCI/ADR-RES,> 100 µM (inactive)
same,GI50,SF-295,> 100 µM (inactive)
same,GI50,CAKI-1,> 100 µM (inactive)
same,GI50,T47D,> 100 µM (inactive)
same,GI50,OVCAR-4,> 100 µM (inactive)
same,GI50,OVCAR-5,> 100 µM (inactive)
same,GI50,SNB-19,> 100 µM (inactive)
same,GI50,NCI-H522,> 100 µM (inactive)
same,GI50,SNB-75,> 100 µM (inactive)
same,GI50,SK-MEL-2,> 100 µM (inactive)
same,GI50,IGROV-1,> 100 µM (inactive)
same,GI50,NCI-H226,> 100 µM (inactive)
same,GI50,HOP-62,> 100 µM (inactive)
same,GI50,UACC-257,> 100 µM (inactive)
same,GI50,SN12C,> 100 µM (inactive)
same,GI50,ACHN,> 100 µM (inactive)
same,GI50,RXF 393,> 100 µM (inactive)
same,GI50,SF-268,> 100 µM (inactive)
same,GI50,COLO 205,> 100 µM (inactive)
same,GI50,HCC 2998,> 100 µM (inactive)
same,GI50,MCF7,> 100 µM (inactive)
same,GI50,SF-539,> 100 µM (inactive)
same,GI50,U-251,> 100 µM (inactive)
same,GI50,EKVX,> 100 µM (inactive)
same,GI50,OVCAR-8,> 100 µM (inactive)
same,GI50,A549,> 100 µM (inactive)
same,GI50,HCT-15,> 100 µM
same,GI50,DU-145,> 100 µM (inactive)
same,GI50,K562,> 100 µM (inactive)
same,GI50,SK-OV-3,> 100 µM (inactive)
same,GI50,SK-MEL-5,> 100 µM (inactive)
same,GI50,KM12,> 100 µM (inactive)
same,GI50,NCI-H460,> 100 µM (inactive)
same,GI50,CCRF-CEM,> 100 µM (inactive)
same,GI50,M14,> 100 µM (inactive)
same,GI50,MOLT-4,> 100 µM (inactive)
same,GI50,HCT-116,> 100 µM (inactive)
same,GI50,RPMI-8226,> 100 µM (inactive)
same,GI50,LOX IMVI,> 100 µM (inactive)
same,GI50,UACC-62,> 100 µM (inactive)
